The values that follow come from article PMC11823630, “In vitro potentiation of tetracyclines in Pseudomonas aeruginosa by RW01, a new cyclic peptide” (Antimicrobial Agents and Chemotherapy, 2024).

Test [1] deals with PAO1 mutant MIN1_RW01_3, pmrB(V215L). Nature of the test: MIC, E-test on MHA. Particulars: Pseudomonas aeruginosa, PAO1, read-out: MIC, E-test. The class given is cell-based.
Test [2] concerns PAO1 mutant MIN2_RW01_3, parS(V152A). Nature of the test: MIC, E-test on MHA. Particulars: Pseudomonas aeruginosa, PAO1, read-out: MIC, E-test. The class given is cell-based.
Test [3] deals with PAO1 mutant MIN16_2, nalC(aa9∆4), pilQ(nt46∆1). Briefly: MIC, E-test on MHA. It counts as cell-based. Particulars: Pseudomonas aeruginosa, PAO1, read-out: MIC, E-test.
Test [4] concerns PAO1 mutant MIN2_RW01_4, pmrB(M292T). Briefly: MIC, E-test on MHA. It counts as cell-based. Particulars: Pseudomonas aeruginosa, PAO1, read-out: MIC, E-test.
In test [5] the test system is PAO1 mutant MIN8_3, pilZ(nt18InsT). Nature of the test: MIC, E-test on MHA. It counts as cell-based. Particulars: Pseudomonas aeruginosa, PAO1, read-out: MIC, E-test.
Test [6] concerns PAO1 mutant MIN1_RW01_2, mexR(G58E), pilB(G326D), hutC(Y181X). Nature of the test: MIC, E-test on MHA. The class given is cell-based. Particulars: Pseudomonas aeruginosa, PAO1, read-out: MIC, E-test.
Test [7] deals with PAO1 mutant MIN16_4, nalC(T50P), pilM(Q62X). Briefly: MIC, E-test on MHA. It counts as cell-based. Particulars: Pseudomonas aeruginosa, PAO1, read-out: MIC, E-test.
The subject of test [8] is P. aeruginosa PAO1, WT. Briefly: MIC, E-test on MHA. It counts as cell-based. Particulars: Pseudomonas aeruginosa, PAO1, read-out: MIC, E-test.
The subject of test [9] is PAO1 mutant MIN4_RW01_1, pmrB(R429H). Nature of the test: MIC, E-test on MHA. It counts as cell-based. Particulars: Pseudomonas aeruginosa, PAO1, read-out: MIC, E-test.
In test [10] the test system is PAO1 mutant MIN16_1, nalD(T43P). Nature of the test: MIC, MHB microdilution. Particulars: Pseudomonas aeruginosa, PAO1, read-out: MIC, MHB microdilution.
Another test relates to P. aeruginosa PAOUW. Nature of the test: Checkerboard assay with RW01. The class given is cell-based, Pseudomonas aeruginosa. Particulars: for average FIC Index: antibiotic combined with RW01, checkerboard, AST broth, 37°C, 18–22 h, three biological replicates. The method, then:
(§1) To assess the in vitro interaction between RW01 and tetracyclines, the checkerboard assay method was performed in 96-well microtiter plates using strains PAO1 and PAOUW. In the same way as for MIC determination, BD Phoenix AST Broth (Becton Dickinson) medium was used for bacterial growth. Minocycline and tigecycline combined with RW01 were the agents selected for the assay. A column and a row of wells in the checkerboard plate were reserved for controls of each antimicrobial individually to ensure the proper concentration of the agents. Positive and negative controls were also included. Wells in rows contained serial dilutions of RW01 starting from 512 mg/L, while those in columns varied in concentrations of the antibiotic. Inoculum at ~5 × 10⁵ CFU/mL, antibiotic, RW01, and AST broth were added to a final volume of 200 µL. Plates were incubated at 37°C for 18–22 h under aerobic conditions. Three biological replicates were obtained. Fractional inhibitory concentration index (FICI) is defined as the summatory of fractional inhibitory concentrations (FICs) from compound A: RW01, and compound B: minocycline/tigecycline. FICs were calculated as:
(§2) FIC of RW01 (FICRW01)=MIC of RW01 in combination/MIC of RW01 alone,FIC of antibiotic (FICATB)=MIC of ATB in combination/MIC of ATB alone,FICI=FICRW01 +FICATB.
(§3) FICI was interpreted as follows: synergistic effect if FICI is ≤0.5; additive effect if 0.5 < FICI ≤ 1.0; indifferent effect if 1.0 < FICI ≤ 2.0; and finally, antagonistic effect if FICI is >2.0. The average FICI considering the antibiotic MIC (no growth in any of the replicates) at different concentrations of RW01 was calculated ([28]).

Test [11] deals with P. aeruginosa PAO1. Briefly: Checkerboard assay with RW01. It counts as cell-based, Pseudomonas aeruginosa. Particulars: for average FIC Index: antibiotic combined with RW01, checkerboard, AST broth, 37°C, 18–22 h, three biological replicates. As to the method: as §1, §2, §3
In test [12] the test system is PAO1 mutant MIN8_1, nalD(R3C), pilM(Q62X). Briefly: MIC, MHB microdilution. Particulars: Pseudomonas aeruginosa, PAO1, read-out: MIC, MHB microdilution. On the technique in general: In broth dilution the organism is exposed to a series of concentrations in liquid medium.
Test [13] deals with PAO1 mutant MIN1_RW01_2, mexR(G58E), pilB(G326D), hutC(Y181X). Briefly: MIC, MHB microdilution. Particulars: Pseudomonas aeruginosa, PAO1, read-out: MIC, MHB microdilution.
In test [14] the test system is PAO1 mutant MIN1_RW01_3, pmrB(V215L). Briefly: MIC, MHB microdilution. Particulars: Pseudomonas aeruginosa, PAO1, read-out: MIC, MHB microdilution.
Test [15] has as its system PAO1 mutant MIN8_2, pilZ(nt18InsT). Briefly: MIC, MHB microdilution. Particulars: Pseudomonas aeruginosa, PAO1, read-out: MIC, MHB microdilution.
For test [16], the system named is PAO1 mutant MIN1_RW01_1, pmrB(Y98N). Briefly: MIC, MHB microdilution. Particulars: Pseudomonas aeruginosa, PAO1, read-out: MIC, MHB microdilution.
Test [17] deals with PAO1 mutant MIN4_RW01_3, pmrB(M292T). Briefly: MIC, MHB microdilution. Particulars: Pseudomonas aeruginosa, PAO1, read-out: MIC, MHB microdilution.
Test [18] deals with PAO1 mutant MIN16_4, nalC(T50P), pilM(Q62X). Briefly: MIC, MHB microdilution. Particulars: Pseudomonas aeruginosa, PAO1, read-out: MIC, MHB microdilution.
Test [19] relates to P. aeruginosa PAO1, WT. Nature of the test: MIC, MHB microdilution.
Test [20] has as its system PAO1 mutant MIN8_4, pilZ(nt18InsT). Nature of the test: MIC, MHB microdilution. Particulars: Pseudomonas aeruginosa, PAO1, read-out: MIC, MHB microdilution.
Test [21] relates to P. aeruginosa PAO1. Nature of the test: One-step mutant generation and resistant population analysis on MHA. It counts as cell-based, Pseudomonas aeruginosa. As to the method: Selection of resistant mutants was performed for minocycline with and without RW01 in three independent replicates for wild-type P. aeruginosa reference strain PAO1. Tubes containing Mueller-Hinton broth (MHB) were inoculated and incubated for 24 h at 37°C. Afterward, 1/100 dilution of each tube was incubated at 37°C in MHB to late-exponential growth phase, measured by spectrophotometry at OD600. […] A control plate without antibiotic was included as inoculum control. After overnight incubation, colony counting of each treatment was performed to analyze the generation of resistant population. The mutant prevention concentration (MPC) was defined as the lowest concentration of antibiotic yielding no growth of resistant mutants. Selected mutants were checked for susceptibility profiles by using a Sensititre custom plate (Thermo Fisher Scientific, Massachusetts, USA) for Gram-negative bacteria, following the manufacturer’s instructions.

The next test concerns 10 P. aeruginosa strains. Briefly: MIC with and without RW01, summary over the strain collection. The class given is cell-based, Pseudomonas aeruginosa. Particulars: RW01 100 mg/L; all strains tested. The method, then: MIC for RW01 was also tested.

Structures are written as SMILES. Values after ≈ are worked out from the molar mass of the structure shown.

Take `C[C@H]1c2cccc(O)c2C(=O)C2=C(O)[C@]3(O)C(=O)C(C(N)=O)=C(O)[C@@H](N(C)C)[C@@H]3[C@@H](O)[C@@H]21` [Doxycycline, doxycycline]: the MIC (commonly the least concentration at which growth counts as inhibited) in test [1] amounted to 64 µg/mL (≈ 144 µM); in test [2], 256 µg/mL (≈ 576 µM); in test [3], 128 µg/mL (≈ 288 µM); in [4], 64 µg/mL (≈ 144 µM); in [5], 128 µg/mL (≈ 288 µM); in [6], 256 µg/mL (≈ 576 µM). For the same compound, the MIC in test [7] was found to be 128 µg/mL (≈ 288 µM); with P. aeruginosa PAO1, WT [8] it was 32 µg/mL (≈ 72 µM); in test [9], 256 µg/mL (≈ 576 µM).

In the case of `CN(C)c1ccc(O)c2c1C[C@H]1C[C@H]3[C@H](N(C)C)C(O)=C(C(N)=O)C(=O)[C@@]3(O)C(O)=C1C2=O` [Minocycline, minocycline], the MIC is 16 µg/mL (≈ 35 µM) in test [10]; 16 µg/mL (≈ 35 µM) in [12]; 32 to 64 µg/mL (≈ 69.9 to 140 µM) in test [13]; 16 µg/mL (≈ 35 µM) in test [14]; 16 µg/mL (≈ 35 µM) in test [15]; 16 µg/mL (≈ 35 µM) in [16]. For the same compound, the MIC in [17] was 64 µg/mL (≈ 140 µM); in [18], 16 µg/mL (≈ 35 µM); with P. aeruginosa PAO1, WT [19] (Pseudomonas aeruginosa, PAO1, read-out: MIC, MHB microdilution), 4 to 8 µg/mL (≈ 8.74 to 17.5 µM); in [20], 16 µg/mL (≈ 35 µM); with P. aeruginosa PAO1 [21] (Pseudomonas aeruginosa, PAO1, read-out: MIC (population studies)), 4 to 8 µg/mL (≈ 8.74 to 17.5 µM). Moreover, the “interaction with RW01 (checkerboard)” value is recorded as “synergistic” in the test on P. aeruginosa PAOUW and “additive” in the test on P. aeruginosa PAO1 [11]. In addition, the “average FIC Index” value amounted to 0.406 with P. aeruginosa PAOUW and 0.535 in the test with P. aeruginosa PAO1 [11]. In addition, in the test on P. aeruginosa PAO1, WT [19] (PAO1 WT, minocycline MIC in combination with RW01, listed as MIN), the “MIC of MIN + RW01, MHB microdilution” value is 0.5 to 1 mg/L. Further, the “mutant prevention concentration (MPC)” value with P. aeruginosa PAO1 [21] (PAO1, minocycline alone, three independent replicates) lay within 32 to 64 mg/L. Also, the “mutant prevention concentration (MPC) with RW01” value in the test on P. aeruginosa PAO1 [21] (PAO1, minocycline co-administered with RW01 100 mg/L) is 8 mg/L.

As to `CN(C)c1cc(NC(=O)CNC(C)(C)C)c(O)c2c1C[C@H]1C[C@H]3[C@H](N(C)C)C(O)=C(C(N)=O)C(=O)[C@@]3(O)C(O)=C1C2=O` [Tigecycline, tigecycline], the MIC came out at 16 µg/mL (≈ 27.3 µM) in test [1]; 48 µg/mL (≈ 82 µM) in test [2]; 32 µg/mL (≈ 54.6 µM) in test [3]; 16 µg/mL (≈ 27.3 µM) in test [4]; 16 µg/mL (≈ 27.3 µM) in test [5]; 32 µg/mL (≈ 54.6 µM) in test [6]. Also, the MIC in [7] is 16 µg/mL (≈ 27.3 µM); with P. aeruginosa PAO1, WT [8] it was 6 to 8 µg/mL (≈ 10.2 to 13.7 µM); in [9] it was 16 µg/mL (≈ 27.3 µM). For the same compound, the “MIC reduction on combination with RW01 over the strains” value in the test on 10 P. aeruginosa strains is given as “four- to eightfold”. Moreover, the “interaction with RW01 (checkerboard)” value is on record as “synergistic” in the test with P. aeruginosa PAOUW and “additive” with P. aeruginosa PAO1 [11]. For the same compound, the “average FIC Index” value with P. aeruginosa PAOUW came to 0.446; in the test on P. aeruginosa PAO1 [11], 0.677.
